Assay results taken from patent publication US20230213527A1, “COMPOSITIONS AND METHODS FOR POLYPEPTIDE ANALYSIS” (Quantum-Si Incorporated, priority 2021, published 2023).
Entries after “also recorded” stand apart in the source; their conditions may differ. Square brackets hold non-standard residues; d marks the D form. Ends that are not written are not given here. Cit = NC(=O)NCCC[C@H](N)C(=O)O

Tests used:
[1] = target: T1, PhTET3 (Pyrococcus horikoshii, UniProt O59485); experiment: Aminopeptidase cleavage during dynamic sequencing with PhTET3; type: biochemical, P. horikoshii
T1 construct: His tag (inferred: purified as the recognizers, on Ni-NTA); made in house; host or cells: E. coli BL21(DE3)
T1 sequence (O59485 1-354): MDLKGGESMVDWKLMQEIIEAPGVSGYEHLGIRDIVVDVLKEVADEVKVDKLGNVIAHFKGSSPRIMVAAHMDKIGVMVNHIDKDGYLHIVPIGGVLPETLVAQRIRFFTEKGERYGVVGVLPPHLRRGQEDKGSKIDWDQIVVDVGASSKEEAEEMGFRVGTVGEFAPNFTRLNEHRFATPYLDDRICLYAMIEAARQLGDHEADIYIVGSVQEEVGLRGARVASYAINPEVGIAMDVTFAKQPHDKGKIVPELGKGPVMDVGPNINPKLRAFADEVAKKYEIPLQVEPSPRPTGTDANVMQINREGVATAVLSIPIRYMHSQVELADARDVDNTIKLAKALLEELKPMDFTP
Source text: The collected traces consisted of regions of distinct pulsing, which were referred to as recognition segments (RSs), separated by regions lacking recognition pulsing (non-recognition segments, NRSs). Analysis software was developed to automatically identify pulsing regions and transition points within traces (Methods). Traces began with recognition of phenylalanine with a median PD of 2.36 s (FIG. 2D), in agreement with the PD observed for FAA in recognition-only assays. This pattern terminated after aminopeptidase addition (on average 11 min after addition), and was followed by the ordered appearance of two RSs with median PDs of 0.25 s and 0.49 s (FIG. 2D), corresponding to the short and medium PDs obtained in YAA and WAA recognition-only assays.
(§1) A second chip check was then performed. […] Data was recorded for 15 min.

[2] = test system: PS610; experiment: Dynamic single-molecule sequencing, recognition by PS610; type: binding, A. tumefaciens; settings: for RS mean PD, recognition of N-terminal phenylalanine: lysine or acetylated lysine downstream
Experimental: The semiconductor chip was placed in the sequencing device and a chip check was performed to test electronic circuit function and to optimize laser coupling alignment. The chip was then removed from the device socket and the chip was washed twice with 50 μL of 70% isopropanol, followed by four washes with 30 μL of wash buffer (50 mM MOPS pH 8.0, 60 mM potassium acetate, 50 mM glucose, 20 mM magnesium acetate, and surfactant mix) through a flow cell attached to the chip. A second chip check was then performed. […] The chip was then washed six times with wash buffer, followed by addition of an imaging solution (wash buffer with 5 mM Trolox and an oxygen scavenging system). The laser was unblocked and the occupancy percentage (target 10-30%, Poisson distributed) was recorded by acquiring a photobleaching signal from a fluorophore attached to the peptide complex during 5 min of laser illumination. […] The laser was then blocked briefly and aminopeptidases were added to the sequencing reaction via the flow cell and mixed thoroughly (final concentration 2-8 μM PhTET2 and/or 20-80 μM PhTET3, as indicated according to the experiment). The laser was then unblocked, and data was recorded for 10 hours. For all runs, 30 μL of mineral oil was added to fluid reservoirs at each port of the flow cell to prevent evaporation during the run.
(§2) The measured signal on-chip comprises various noise components, the most dominant one being due to fluorescent emissions from diffusing recognizers in the reaction chamber. The pulse caller algorithm for a given reaction chamber starts by estimating the statistical properties of this background noise component. Once an estimate within certain error bounds has been established, the algorithm works in an online fashion observing new frames of data as they are generated. At each point in time, the algorithm maintains state indicating whether the signal is due to the background component only or a pulse from a recognizer-NAA interaction is being observed. The state transition from background to pulse is triggered using an edge detection test where the shift in signal is expected to be significant with respect to the background component's statistical distribution. The state transition from pulse to background is triggered when a small window of the most recent frames of the signal appears to conform to the background component's distribution again. The algorithm maintains an updated model of the background component as new background frames are observed. This provides robustness against drift in the signal intensity together with a feedback control loop that maintains a stable optical coupling of the laser into the chip based on any such detected drift. As detected pulses can be due to true recognizer-to-dipeptide interaction events as well as other occasional transient noise spikes, a downstream filter layer is employed to test the significance of pulse events based on their duration, intensity, and noise patterns within the context of the full timeline of the run and the entire dataset of reaction chambers.
Initial regions are determined by performing a sliding window calculation of pulse rate along the time dimension of a series of pulses. Regions with a mean pulse rate >1 pulse/min are then subdivided according to a greedy bisection approach. Here, the pulses on the left and right of each potential split are assessed for statistically significant deviation in any of four separate pulse properties—intensity, bin ratio, pulse duration, and interpulse duration—using a Mann-Whitney U Test. To define RSs, the split point with the lowest p-value for any of the four properties is used to sub-divide the region and the process continues until no regions remain with a candidate split point with p-value <10^−5 in any comparison. In this manner, transitions from one RS to the next in a region of continuous pulsing are determined a priori on the basis of changes in fluorescence properties of pulsing kinetics.

[3] = test system: PS691; settings: tyrosine or phosphotyrosine at position 3
Experimental: The semiconductor chip was placed in the sequencing device and a chip check was performed to test electronic circuit function and to optimize laser coupling alignment. The chip was then removed from the device socket and the chip was washed twice with 50 μL of 70% isopropanol, followed by four washes with 30 μL of wash buffer (50 mM MOPS pH 8.0, 60 mM potassium acetate, 50 mM glucose, 20 mM magnesium acetate, and surfactant mix) through a flow cell attached to the chip. A second chip check was then performed. […] The laser was unblocked and the occupancy percentage (target 10-30%, Poisson distributed) was recorded by acquiring a photobleaching signal from a fluorophore attached to the peptide complex during 5 min of laser illumination. For NAA recognition-only assays, after peptide loading, labeled recognizer was added to a final concentration of 50 nM PS610, 100 nM PS691, or 250 nM PS961 (as indicated according to the experiment), and data was recorded for 10 hours. […] Data was recorded for 15 min. […]
The measured signal on-chip comprises various noise components, the most dominant one being due to fluorescent emissions from diffusing recognizers in the reaction chamber. […] This provides robustness against drift in the signal intensity together with a feedback control loop that maintains a stable optical coupling of the laser into the chip based on any such detected drift. […]

[4] = test system: PS961; experiment: Dynamic single-molecule sequencing, recognition by PS961; type: binding, Planctomycetes; settings: for RS mean PD, recognition of N-terminal leucine: tyrosine or phosphotyrosine at position 2
PS961, sequence (as listed by the source): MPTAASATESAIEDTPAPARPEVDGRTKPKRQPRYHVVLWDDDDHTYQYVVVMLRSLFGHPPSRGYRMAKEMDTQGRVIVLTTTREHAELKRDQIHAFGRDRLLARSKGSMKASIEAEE
Experimental: The semiconductor chip was placed in the sequencing device and a chip check was performed to test electronic circuit function and to optimize laser coupling alignment. The chip was then removed from the device socket and the chip was washed twice with 50 μL of 70% isopropanol, followed by four washes with 30 μL of wash buffer (50 mM MOPS pH 8.0, 60 mM potassium acetate, 50 mM glucose, 20 mM magnesium acetate, and surfactant mix) through a flow cell attached to the chip. A second chip check was then performed. The laser was then blocked via an integrated software-controlled shutter, peptide complex was added to a final concentration of 1-10 nM and mixed thoroughly, and the chip was incubated for 15 min. The chip was then washed six times with wash buffer, followed by addition of an imaging solution (wash buffer with 5 mM Trolox and an oxygen scavenging system). The laser was unblocked and the occupancy percentage (target 10-30%, Poisson distributed) was recorded by acquiring a photobleaching signal from a fluorophore attached to the peptide complex during 5 min of laser illumination. For NAA recognition-only assays, after peptide loading, labeled recognizer was added to a final concentration of 50 nM PS610, 100 nM PS691, or 250 nM PS961 (as indicated according to the experiment), and data was recorded for 10 hours. For dynamic sequencing assays, after peptide loading, a mixture of labeled recognizers was added to obtain final concentrations of 50 nM PS610, 100 nM PS691, and 250 nM PS961. Data was recorded for 15 min. The laser was then blocked briefly and aminopeptidases were added to the sequencing reaction via the flow cell and mixed thoroughly (final concentration 2-8 μM PhTET2 and/or 20-80 μM PhTET3, as indicated according to the experiment). The laser was then unblocked, and data was recorded for 10 hours. For all runs, 30 μL of mineral oil was added to fluid reservoirs at each port of the flow cell to prevent evaporation during the run.
as §2
Initial regions are determined by performing a sliding window calculation of pulse rate along the time dimension of a series of pulses. Regions with a mean pulse rate >1 pulse/min are then subdivided according to a greedy bisection approach.

[5] = target: T2, PS1220 (Kluyveromyces lactis, UniProt O60014, E169T/E174T/I162E/N105S/N176F/R116K/S153T/V146L); experiment: Dynamic single-molecule sequencing, recognition by PS1220; type: binding; settings: vimentin peptide fragments
T2 construct: PS1220; 566
T2 sequence (O60014 with tags, fused parts or gaps N105S/R116K/V146L/S153T/I162E/E169T/E174T/N176F): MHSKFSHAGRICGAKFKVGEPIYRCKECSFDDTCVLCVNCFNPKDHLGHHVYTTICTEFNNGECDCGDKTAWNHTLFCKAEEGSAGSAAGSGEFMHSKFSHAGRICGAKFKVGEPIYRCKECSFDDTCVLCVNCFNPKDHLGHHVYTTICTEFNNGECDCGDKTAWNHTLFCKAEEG
Experimental: (§3) Sequencing reactions using the recognizers PS610 (FYW), PS1220 (R), and PS1223 (LIV) were performed separately for the QP706 and QP1073 peptide fragments. Each recognizer was labeled with a unique dye and/or unique number of dyes. A scatter plot of bin ratio v. pulse duration is shown for the QP706 peptide fragment in FIG. 18A and for the QP1073 peptide fragment in FIG. 18B. In the plot of FIG. 18A, three clusters corresponding to FLE, LEQ, and RFL segments are visible. […] In the plot of FIG. 18B, two clusters corresponding to FLE and LEQ segments are visible, but there is no cluster corresponding to RFL.
Results from additional sequencing reactions performed using the recognizers PS610 (FYW), PS1220 (R), and PS1223 (LIV) and the QP706 and QP1073 peptide fragments are shown in FIGS. 19A-19D and 20A-20D. Traces from the QP706 reactions are shown in FIGS. 19A-19B, and corresponding scatter plots of intensity v. bin ratio are shown in FIGS. 19C-19D. […] Traces from the QP1073 reactions are shown in FIGS. 20A-20B, and the corresponding scatter plots of intensity v. bin ratio are shown in FIGS. 20C-20D.

[6] = target: T3, PS1165; experiment: Dynamic single-molecule sequencing, recognition by PS1165; type: binding; settings: lysine or acetylated lysine downstream
T3 construct: PS1165; 511
T3 sequence (Q13490 with tags, fused parts or gaps): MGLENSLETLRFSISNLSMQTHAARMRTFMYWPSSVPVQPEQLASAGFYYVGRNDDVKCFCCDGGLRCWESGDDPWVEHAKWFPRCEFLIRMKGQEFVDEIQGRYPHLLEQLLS
Experimental: Sequencing reactions using the recognizers PS691 (R), PS610 (FYW), PS961 (LIV), and PS1165 (A) were performed separately for the peptides RLYFKAYPDDD (SEQ ID NO: 825) and RLK{acetyl}FIAYPDDD (SEQ ID NO: 826) (where K{acetyl} is an acetylated lysine). Recognition of the N-terminal phenylalanine and alanine residues preceding lysine or acetyl-lysine by PS610 and PS1165, respectively, was observed, with distinct pulse durations depending on whether the peptide contained lysine (F=1.4 s, A=1.3 s; FIG. 16A) or acetylated lysine (F=1.8 s, A=2.2 s; FIG. 16B). Recognition of N-terminal phenylalanine occurred with RS mean PD of 1.4 s for FAK and 1.8 s for FAK{acetyl }. Recognition of N-terminal alanine occurred with RS mean PD of 1.3 s for AK and 2.2 s for AK{acetyl}.

[7] = test system: PS961; experiment: NAA recognition-only single-molecule assay on chip with PS961; type: binding, Planctomycetes; settings: 250 nM PS961
Source text: To expand the set of recognizable NAAs, N-end rule pathway proteins were investigated as a source of additional recognizers. In a comprehensive screen of diverse ClpS family proteins, a group of ClpS proteins from the bacterial phylum Planctomycetes with native binding to N-terminal leucine, isoleucine, and valine was discovered. […] The median PD of binding to peptides with N-terminal LAA, IAA, and VAA was 1.21, 0.28, and 0.21 s, respectively, in agreement with bulk characterization (FIG. 7C).
as §1
The resulting regions are called recognition segments (RSs).

[8] = test system: PS1223; experiment: Dynamic single-molecule sequencing, recognition by PS1223; type: binding
PS1223, sequence (as listed by the source): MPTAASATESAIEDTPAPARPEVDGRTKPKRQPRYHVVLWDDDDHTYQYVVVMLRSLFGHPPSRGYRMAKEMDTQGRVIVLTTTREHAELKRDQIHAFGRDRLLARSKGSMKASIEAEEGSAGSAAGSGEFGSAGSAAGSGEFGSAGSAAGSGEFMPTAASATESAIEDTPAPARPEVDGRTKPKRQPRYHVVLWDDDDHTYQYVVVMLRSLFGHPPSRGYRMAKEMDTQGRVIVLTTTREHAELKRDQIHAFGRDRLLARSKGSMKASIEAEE
Experimental: as §3
In this example, sequencing reactions were conducted for 4 pairs of unmodified and citrullinated peptides: QP1028 & QP1029, QP1030 & QP1031, QP1032 & QP1033, and QP707 & QP789. […] For the QP1028 & QP1029 and QP1030 & QP1031 pairs, sequencing reactions were conducted using the PS610 (FYW) recognizer. For the QP1032 & QP1033 and QP707 & QP789 pairs, sequencing reactions were conducted using the PS1223 (LIV) recognizer.

[9] = target: T4, PS621 (Kluyveromyces lactis, UniProt O60014, E174T/N105S/N176F/R116K/S153T/V146T); experiment: Dynamic single-molecule sequencing, recognition by PS621; type: binding; settings: citrulline at position 2
T4 construct: PS621; […]
T4 sequence (O60014 other isoform, or with tags, fused parts or gaps N105S/R116K/V146T/S153T/E174T/N176F): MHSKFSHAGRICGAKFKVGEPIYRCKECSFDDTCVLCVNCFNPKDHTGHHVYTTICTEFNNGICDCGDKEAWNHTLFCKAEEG

FAAWAAYAA [FAAWAAYAAAADDD]
Termination of phenylalanine recognition pattern after aminopeptidase addition (average) [1]: 11 min | Median PD, recognition of phenylalanine (first RS) ([2]; PS610, PhTET3 added after 15 minutes): 2.36 s | Median PD, first RS appearing after phenylalanine ([2]; PS610 with PhTET3): 0.25 s | Median PD, second RS appearing after phenylalanine ([2]; PS610 with PhTET3): 0.49 s

RLpYFIAYPDDD
Recognition of Y or pY by PS610 between L and F [2]: not recognized | RS mean PD, recognition of N-terminal arginine [3]: 0.45 s | RS mean PD, recognition of N-terminal leucine [4]: 3.4 s

VCitFLEQQNK (V[Cit]FLEQQNK) [QP1073, citrullinated peptide fragment of vimentin]
Recognition of arginine / citrulline residue by PS1220 [5]: did not recognize; also recorded: does not recognize

RLK{acetyl}FIAYPDDD (RLK(Ac)FIAYPDDD-NH2; also: C-terminal azidolysine (general statement for all synthetic peptides)) [FAK{acetyl }, peptide containing acetylated lysine]
RS mean PD, recognition of N-terminal phenylalanine [2]: 1.8 s | RS mean PD, recognition of N-terminal alanine [6]: 2.2 s

IAA: peptide with N-terminal IAA; in b185 the N-terminal IAA state of LAQFASIAAYASDDD (not fully specified (C-terminus); also: C-terminal azidolysine conjugated to DNA-streptavidin linker)
Median PD of binding [7]: 0.28 s | Median PD ([4]; peptide LAQFASIAAYASDDD, PS610 and PS961, PhTET2 and PhTET3): 0.25 s

RLYFIAYPDDD
Recognition of Y or pY by PS610 between L and F [2]: Y recognition | RS mean PD, recognition of N-terminal arginine [3]: 0.9 s | RS mean PD, recognition of N-terminal leucine [4]: 2.45 s

RLYFKAYPDDD (FAK) [peptide containing lysine]
RS mean PD, recognition of N-terminal phenylalanine [2]: 1.4 s | RS mean PD, recognition of N-terminal alanine [6]: 1.3 s

VRFLEQQNK [QP706, peptide fragment of vimentin]
Recognition of phenylalanine (F) residue by PS610 ([2]; vimentin peptide fragments): recognized; also recorded: recognition | Recognition of leucine (L) residue by PS1223 ([8]; vimentin peptide fragments): recognized; also recorded: recognition | Recognition of arginine / citrulline residue by PS1220 [5]: recognized; also recorded: recognition

LCitLAFAYPDDDK (L[Cit]LAFAYPDDDK) [QP789]
N-terminal arginine recognition by PS621 [9]: eliminated | Pulse Width ([8]; recognizer PS1223, recognition of the N-terminal amino acid): 0.92 s | Median PD of recognition of N-terminal leucine by PS961 ([4]; arginine or citrulline at position 2): 0.78 s
